Assay [1] concerns Aspergillus niger ATCC 9642. The assay is described as follows: Minimal inhibitory concentration (MIC) of preservative solutions, serial dilution in culture medium, read with the naked eye. Type of assay: cell-based. The settings on record: ATCC9642, 120 h, A. niger ATCC 9642, 10^5 cfu/ml, 25°C, 5 days. How it is done: (§1) Thus, two culture media are prepared by adding 0% and 5% of a-cyclodextrin, respectively, to a 1/15 M phosphate buffer (pH 6.5) containing 2% of Polypeptone (Daigo Nutritive Chemicals Ltd., Japan). The preservative is added to each medium and the resulting solution is diluted serially with each of the respective media to give solutions differing in preservative concentration. The test organisms are added to these solutions to a final concentration of 10^5 cfu/ml (cfu: colony forming unit).

Assay [2] deals with Escherichia coli IFO 3044. The description is as above. Type of assay: cell-based. The settings on record: IFO3044, 72 h, E. coli IFO 3044, 10^5 cfu/ml, 35°C, 3 days. How it is done: as §1
Where [3] appears, read: pH 6.5, Culture medium + 5% α-cyclodextrin.
The mark [4] stands for this setting: pH 6.5, Culture medium without addition of cyclodextrin.

Values after ≈ are worked out from the molar mass of the structure shown.

As to `Cc1cc(O)cc(C)c1Cl` [p-Chloro-m-xylenol, p-chloro-m-xylenol], the MIC in assay [1] (setting [3]) stood at 75 µg/mL; in assay [1] (setting [4]), 50 µg/mL (≈ 319 µM); in assay [2] (setting [3]) it was 150 µg/mL; in assay [2] (setting [4]), 100 µg/mL (≈ 639 µM).
On to `CCCOC(=O)c1ccc(O)cc1` [Propylparaben], for which the MIC in assay [1] (setting [3]) came out at 4000 µg/mL; in assay [1] (setting [4]) it was 125 µg/mL (≈ 694 µM); in assay [2] (setting [3]), 4000 µg/mL; in assay [2] (setting [4]), 250 µg/mL (≈ 1390 µM).
In the case of `Cc1cc(O)ccc1Cl` [p-Chloro-m-cresol, p-chloro-m-cresol], the minimal inhibitory concentration (MIC) amounted to 200 µg/mL in assay [1] (setting [3]), 100 µg/mL (≈ 701 µM) in assay [1] (setting [4]), 200 µg/mL in assay [2] (setting [3]) and 200 µg/mL (≈ 1400 µM) in assay [2] (setting [4]).
`Oc1ccc(Cl)cc1` [p-Chlorophenol, p-chlorophenol]: the minimal inhibitory concentration (MIC) was 400 µg/mL in assay [1] (setting [3]), 200 µg/mL (≈ 1560 µM) in assay [1] (setting [4]), 400 µg/mL in assay [2] (setting [3]) and 200 µg/mL (≈ 1560 µM) in assay [2] (setting [4]).
`CCCCOC(=O)c1ccc(O)cc1` [Butylparaben]: the MIC in assay [1] (setting [3]) amounted to 4000 µg/mL; in assay [1] (setting [4]) it was 125 µg/mL (≈ 644 µM); in assay [2] (setting [3]) it was 4000 µg/mL; in assay [2] (setting [4]), 125 µg/mL (≈ 644 µM).
Turning to `CCOC(=O)c1ccc(O)cc1` [Ethylparaben], the MIC in assay [1] (setting [3]) was found to be 4000 µg/mL; in assay [1] (setting [4]) it was 250 µg/mL (≈ 1500 µM); in assay [2] (setting [3]), 4000 µg/mL; in assay [2] (setting [4]) it was 500 µg/mL (≈ 3010 µM).
On to `COC(=O)c1ccc(O)cc1` [Methylparaben], for which the minimum inhibitory concentration (MIC) in assay [1] (setting [3]) is 4000 µg/mL; in assay [1] (setting [4]) it was 500 µg/mL (≈ 3290 µM); in assay [2] (setting [3]), 4000 µg/mL; in assay [2] (setting [4]), 500 µg/mL (≈ 3290 µM).
